From patent US20240325353A1, “COMPOUND FOR TREATMENT OF COGNITIVE DISORDERS” (Syndesi Therapeutics SA, priority 2021, published 2024)

System: brain activity (BOLD signal)
Test: pharmaco-MRI (BOLD) neuroimaging study in conscious rats
Type: in vivo, rat
Details: for median number of positive voxels (positive BOLD volume of activation): 20-30 min post injection
Method: Test Substance, Reference Substance(s), and Vehicle: the compound of example 1 test substance for dose-dependent change in BOLD signal was provided by Syndesi along with the formula for the vehicle.
Subjects: Forty-eight male Sprague Dawley rats weighing ca 275-300 g were obtained from Charles River Laboratories (Wilmington, MA, USA). Rat were maintained on a 12:12 hour light:dark cycle with a lights on at 0700 hours and allowed access to food and water ad libitum. All rats were acquired and cared for in accordance with the guidelines published in the Guide for the Care and Use of Laboratory Animals (National Institutes of Health Publications No. 85-23, Revised 1985) and adhered to the National Institutes of Health and the American Association for Laboratory Animal Science guidelines.
Acclimation: To reduce the stress associated with head restraint, rats were acclimated to the restraining system (head holder and body tube) one week prior to their actual imaging session. The design of the restraining system (Animal Imaging Research, Holden MA, USA) included a padded head support obviating the need for ear bars helping to reduce animal discomfort while minimizing motion artifact. These acclimation sessions were run each day for 4-5 consecutive days. Rats were briefly anesthetized with 2-3% isoflurane while being secured into the head holder. The forepaws were secured with tape. When fully conscious, the imaging system is placed into a black opaque box “mock scanner” for 30 min with a tape-recording of the MRI pulse sequence to simulate the bore of the magnet and the imaging protocol. A significant decline in respiration, heart rate, motor movements, and plasma corticosterone has been measured when the first and last acclimation periods are compared (King et al., 2005). The reduction in autonomic and somatic measures of arousal and stress improve the signal resolution and quality of the images.
Image Acquisition: Animals were scanned at 300 MHz using a quadrature transmit/receive volume coil built into the rat head holder and restraining system for awake animal imaging (Animal Imaging Research, Holden, MA, USA). The design of the coil provided complete coverage of the brain from olfactory bulbs to brain stem with excellent B1 field homogeneity. Experiments were conducted using a Bruker Biospec 7.0 T/20-cm USR horizontal magnet (Bruker, Billerica, MA, USA) and a 20-G/cm magnetic field gradient insert (ID=12 cm) capable of a 120-μs rise time. At the beginning of each imaging session, a high-resolution anatomical data set was collected using the RARE pulse sequence [22 slice; 1.0 mm; field of view (FOV) 3.0 cm; matrix size 256×256; repetition time (TR) 2.5 s; echo time (TE) 12 ms; NEX 2; 3 min acquisition time]. Functional images were acquired using a multi-slice half-Fourier acquisition single-shot turbo spin echo (HASTE) pulse sequence. Bruker Paravision automatically finds the basic frequency, shims, power requirements for 90° and 180° pulses and sets the receiver gain. A single scanning session acquired 22 slices, 1.0 mm thick, every 6.0 s (TR), using an effective TE of 48 ms, FOV 3.0 cm, matrix size 96×96, NEX 1, and repeated 450 times for a total scanning time of 45 min. The in-plane pixel resolution was 312 μm2.
Data Processing: Data are coregistered to a mean functional image using SPM8's coregistrational code with the following parameters: Quality: 0.97, Smoothing: 0.35 mm, Separation: 0.5 mm. Gaussian smoothing was performed with a FWHM of 0.8 mm. Images were aligned and registered to the 3D rat brain atlas, segmented and labeled with 171 discrete anatomical regions. The alignment process was facilitated by an interactive graphic user interface. The registration process involved translation, rotation and scaling independently and in all three dimensions. Matrices that transformed each subject's anatomy were used to embed each slice within the atlas. […]

Q: With O=C1C[C@H](c2cc(F)c(F)c(F)c2)CN1Cn1ncnc1Cl [compound of example 1, (4R)-1-[(5-chloro-1H-1,2,4-triazol-1-yl)methyl]-4-(3,4,5-trifluorophenyl)pyrrolidin-2-one] as the compound, how does the “effect on the volume of activation (dose response, inverted U)” value (0.1 mg/kg i.p.) read?
A: greatest effect

Q: What about the “brain areas significantly activated, low dose versus vehicle” value (0.1 mg/kg versus vehicle, of 171 brain regions) of the same compound?
A: 30/171

Q: What about the “effect on the volume of activation (dose response, inverted U)” value (1.0 mg/kg i.p.) of the same compound?
A: little or no activation

Q: What about the “median number of positive voxels (positive BOLD volume of activation)” value (“median number of positive voxels” for short) (CA1 dorsal, 0.1 mg/kg i.p.) of the same compound?
A: 23

Q: What about the “median number of positive voxels” value (CA1 dorsal, 0.3 mg/kg i.p.) of the same compound?
A: 15

Q: What about the “median number of positive voxels” value (CA1 dorsal, 1.0 mg/kg i.p.) of the same compound?
A: 0

Q: And the “median number of positive voxels” value (accumbens core, 0.1 mg/kg i.p.)?
A: 13

Q: What about the “median number of positive voxels” value (accumbens core, 0.3 mg/kg i.p.) of the same compound?
A: 3

Q: And the “median number of positive voxels” value (accumbens core, 1.0 mg/kg i.p.)?
A: 0

Q: And the “median number of positive voxels” value (accumbens shell, 0.1 mg/kg i.p.)?
A: 8

Q: And the “median number of positive voxels” value (accumbens shell, 0.3 mg/kg i.p.)?
A: 10

Q: What about the “median number of positive voxels” value (accumbens shell, 1.0 mg/kg i.p.) of the same compound?
A: 2

Q: What about the “median number of positive voxels” value (anterior cingulate area, 0.1 mg/kg i.p.) of the same compound?
A: 67

Q: And the “median number of positive voxels” value (anterior cingulate area, 0.3 mg/kg i.p.)?
A: 37

Q: And the “median number of positive voxels” value (anterior cingulate area, 1.0 mg/kg i.p.)?
A: 2

Q: And the “median number of positive voxels” value (anterior pretectal nucleus, 0.1 mg/kg i.p.)?
A: 7

Q: And the “median number of positive voxels” value (anterior pretectal nucleus, 0.3 mg/kg i.p.)?
A: 5

Q: What about the “median number of positive voxels” value (anterior pretectal nucleus, 1.0 mg/kg i.p.) of the same compound?
A: 0

Q: What about the “median number of positive voxels” value (central amygdaloid nucleus, 0.1 mg/kg i.p.) of the same compound?
A: 8

Q: What about the “median number of positive voxels” value (central amygdaloid nucleus, 0.3 mg/kg i.p.) of the same compound?
A: 4

Q: And the “median number of positive voxels” value (central amygdaloid nucleus, 1.0 mg/kg i.p.)?
A: 0

Q: What about the “median number of positive voxels” value (dentate gyrus dorsal, 0.1 mg/kg i.p.) of the same compound?
A: 17

Q: And the “median number of positive voxels” value (dentate gyrus dorsal, 0.3 mg/kg i.p.)?
A: 9

Q: And the “median number of positive voxels” value (dentate gyrus dorsal, 1.0 mg/kg i.p.)?
A: 0

Q: What about the “median number of positive voxels” value (dentate gyrus ventral, 0.1 mg/kg i.p.) of the same compound?
A: 14

Q: What about the “median number of positive voxels” value (dentate gyrus ventral, 0.3 mg/kg i.p.) of the same compound?
A: 14

Q: What about the “median number of positive voxels” value (dentate gyrus ventral, 1.0 mg/kg i.p.) of the same compound?
A: 0

Q: What about the “median number of positive voxels” value (dorsal medial striatum, 0.1 mg/kg i.p.) of the same compound?
A: 39

Q: And the “median number of positive voxels” value (dorsal medial striatum, 0.3 mg/kg i.p.)?
A: 30

Q: What about the “median number of positive voxels” value (dorsal medial striatum, 1.0 mg/kg i.p.) of the same compound?
A: 0

Q: And the “median number of positive voxels” value (dorsal raphe, 0.1 mg/kg i.p.)?
A: 1

Q: What about the “median number of positive voxels” value (dorsal raphe, 0.3 mg/kg i.p.) of the same compound?
A: 0

Q: What about the “median number of positive voxels” value (dorsal raphe, 1.0 mg/kg i.p.) of the same compound?
A: 0

Q: And the “median number of positive voxels” value (endopiriform nucleus, 0.1 mg/kg i.p.)?
A: 2

Q: And the “median number of positive voxels” value (endopiriform nucleus, 0.3 mg/kg i.p.)?
A: 0

Q: And the “median number of positive voxels” value (endopiriform nucleus, 1.0 mg/kg i.p.)?
A: 0

Q: And the “median number of positive voxels” value (granular cell layer, 0.1 mg/kg i.p.)?
A: 70

Q: What about the “median number of positive voxels” value (granular cell layer, 0.3 mg/kg i.p.) of the same compound?
A: 52

Q: And the “median number of positive voxels” value (granular cell layer, 1.0 mg/kg i.p.)?
A: 9

Q: What about the “median number of positive voxels” value (habenula nucleus, 0.1 mg/kg i.p.) of the same compound?
A: 11

Q: And the “median number of positive voxels” value (habenula nucleus, 0.3 mg/kg i.p.)?
A: 10

Q: What about the “median number of positive voxels” value (habenula nucleus, 1.0 mg/kg i.p.) of the same compound?
A: 0

Q: And the “median number of positive voxels” value (infralimbic ctx, 0.1 mg/kg i.p.)?
A: 19

Q: And the “median number of positive voxels” value (infralimbic ctx, 0.3 mg/kg i.p.)?
A: 21

Q: And the “median number of positive voxels” value (infralimbic ctx, 1.0 mg/kg i.p.)?
A: 4

Q: And the “median number of positive voxels” value (lateral amygdaloid nucleus, 0.1 mg/kg i.p.)?
A: 5

Q: And the “median number of positive voxels” value (lateral hypothalamus, 0.1 mg/kg i.p.)?
A: 56

Q: What about the “median number of positive voxels” value (lateral hypothalamus, 0.3 mg/kg i.p.) of the same compound?
A: 59

Q: What about the “median number of positive voxels” value (lateral hypothalamus, 1.0 mg/kg i.p.) of the same compound?
A: 2

Q: What about the “median number of positive voxels” value (lateral orbital ctx, 0.1 mg/kg i.p.) of the same compound?
A: 29

Q: And the “median number of positive voxels” value (lateral orbital ctx, 0.3 mg/kg i.p.)?
A: 14

Q: What about the “median number of positive voxels” value (lateral orbital ctx, 1.0 mg/kg i.p.) of the same compound?
A: 1
